These results are taken from publication PMC7075651 (Journal of Medicinal Chemistry, 2018).

One data set relates to IAV polymerase. As to the kind of experiment: cells. The format is cell-based, influenza A virus. As to conditions: read-out: IC50, influenza replicon activity. (In general: A replicon is a self-replicating genome or part of one, used to study replication in cells.)
The target in data set [1] is neuraminidase from influenza A/Puerto Rico/8/1934 (H1N1) (Influenza A virus, UniProt P03468). The format is biochemical.
neuraminidase from influenza A/Puerto Rico/8/1934 (H1N1), sequence (P03468 whole entry, looked up): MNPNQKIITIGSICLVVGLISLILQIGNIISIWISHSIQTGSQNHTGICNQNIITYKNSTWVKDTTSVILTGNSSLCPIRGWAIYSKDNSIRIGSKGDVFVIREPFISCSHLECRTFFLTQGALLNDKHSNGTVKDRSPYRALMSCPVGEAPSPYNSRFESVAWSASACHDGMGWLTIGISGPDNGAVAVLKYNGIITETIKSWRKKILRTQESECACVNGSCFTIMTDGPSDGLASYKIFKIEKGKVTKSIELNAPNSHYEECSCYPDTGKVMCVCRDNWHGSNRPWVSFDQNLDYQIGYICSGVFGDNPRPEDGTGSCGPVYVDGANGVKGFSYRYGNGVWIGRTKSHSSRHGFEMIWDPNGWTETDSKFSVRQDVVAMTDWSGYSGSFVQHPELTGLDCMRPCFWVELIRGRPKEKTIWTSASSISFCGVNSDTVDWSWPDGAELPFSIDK
Data set [2] has as its target neuraminidase from influenza A/Hong Kong/8/68 (H3N2) (Influenza A virus, UniProt Q91MA2). The format is biochemical.
The next data set concerns IAV. The format is cell-based, influenza A virus.
In data set [3] the target is HA1 subunit sialic acid-binding site (Influenza A virus, UniProt P03452). Set-up: species or system influenza A/Puerto Rico/8/34 virus.
HA1 subunit sialic acid-binding site, sequence (P03452 18-343 limits assumed): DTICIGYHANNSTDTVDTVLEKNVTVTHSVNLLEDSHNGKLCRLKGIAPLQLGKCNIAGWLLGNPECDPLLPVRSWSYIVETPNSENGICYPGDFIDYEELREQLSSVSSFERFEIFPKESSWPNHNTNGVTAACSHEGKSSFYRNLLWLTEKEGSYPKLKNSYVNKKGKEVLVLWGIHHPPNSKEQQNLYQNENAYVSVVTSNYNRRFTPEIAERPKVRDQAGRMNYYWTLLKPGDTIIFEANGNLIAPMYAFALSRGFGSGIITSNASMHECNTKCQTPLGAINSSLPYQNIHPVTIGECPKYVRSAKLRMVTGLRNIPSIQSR
HA1 subunit sialic acid-binding site, sequence (P03452 345-565 limits assumed): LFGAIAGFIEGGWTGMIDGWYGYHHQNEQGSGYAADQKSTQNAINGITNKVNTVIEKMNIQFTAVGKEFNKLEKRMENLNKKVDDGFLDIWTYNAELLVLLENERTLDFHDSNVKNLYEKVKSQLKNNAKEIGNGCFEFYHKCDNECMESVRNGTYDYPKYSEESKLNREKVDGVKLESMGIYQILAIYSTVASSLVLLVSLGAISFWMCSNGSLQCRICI
A further data set addresses HA2 subunit (Influenza A virus, UniProt P03452). Set-up: species or system H1/PR8 virus. The settings on record: pH 4.6.
The next data set deals with N66 (Influenza A virus, UniProt P03437). The format is binding, IAV H3 (X31). The settings on record: pH 8.8.
N66, sequence (P03437 385-450 limits assumed): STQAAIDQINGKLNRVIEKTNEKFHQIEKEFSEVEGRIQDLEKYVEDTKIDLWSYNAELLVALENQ
For the next data set, the system named is MERS-CoV pseudovirus. As to conditions: 12 h.
The subject of another data set is TZM-b1 cell. The settings on record: human, TZM-b1 cells.
A further data set can be described thus: in vivo. The settings on record: male, Sprague-Dawley, rat, iv, 5 mg/kg.

The structures appear in SMILES notation. Like-named read-outs stand apart in the source and are kept apart here. Where a SMILES comes first, the peptide text is derived from it. [ ]: non-standard residue; d: D form. The star is where a group is joined. Palmitoyl = CCCCCCCCCCCCCCCC(=O)*; βAla = NCCC(=O)O

neuraminidase from influenza A/Hong Kong/8/68 (H3N2), sequence (Q91MA2 whole entry, looked up): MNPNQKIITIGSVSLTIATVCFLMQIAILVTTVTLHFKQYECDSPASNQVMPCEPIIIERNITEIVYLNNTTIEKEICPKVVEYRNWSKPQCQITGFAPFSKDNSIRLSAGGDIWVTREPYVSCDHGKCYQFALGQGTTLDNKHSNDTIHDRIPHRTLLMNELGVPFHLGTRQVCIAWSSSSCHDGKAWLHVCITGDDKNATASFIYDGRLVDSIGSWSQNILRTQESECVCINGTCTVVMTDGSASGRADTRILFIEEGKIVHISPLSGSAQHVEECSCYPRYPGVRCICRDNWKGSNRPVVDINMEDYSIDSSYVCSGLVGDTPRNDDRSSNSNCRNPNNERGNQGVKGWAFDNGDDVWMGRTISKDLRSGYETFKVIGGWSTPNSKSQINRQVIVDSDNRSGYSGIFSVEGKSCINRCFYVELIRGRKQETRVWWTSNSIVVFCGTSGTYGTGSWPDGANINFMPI
HA2 subunit, sequence (P03452 18-343 limits assumed): as the sequence (P03452 18-343 limits assumed) above
HA2 subunit, sequence (P03452 345-565 limits assumed): as the sequence (P03452 345-565 limits assumed) above

On to `CCOC(=O)C1=C[C@@H](OC(CC)CC)[C@H](NC(C)=O)[C@@H](N)C1` [oseltamivir, reference compound], for which the IC50 (usually the concentration at which inhibition is half-maximal) in the data set on IAV polymerase (Influenza A virus, HEK-293T, 30 h) was above 100 µM. Moreover, the “CC50, cytotoxicity of compounds on MDCK cells” value with MDCK cells is above 100 µM.

Regarding `CCCCCCCCCCCCCCCC(=O)NCCCC[C@H](NC(=O)CCNC(=O)[C@H](CCCCN)NC(=O)[C@H](CCCCN)NC(=O)[C@H](CCC(N)=O)NC(=O)[C@@H](NC(=O)[C@H](CCC(=O)O)NC(=O)[C@H](CCC(=O)O)NC(=O)[C@@H](NC(=O)[C@H](CCCCN)NC(=O)[C@H](CCCCN)NC(=O)[C@H](CCC(N)=O)NC(=O)[C@@H](NC(=O)[C@H](CCC(=O)O)NC(=O)[C@H](CCC(=O)O)NC(=O)[C@@H](NC(=O)[C@H](CCCCN)NC(=O)[C@H](CCCCN)NC(=O)[C@H](CCC(N)=O)NC(=O)[C@@H](NC(=O)[C@H](CCC(=O)O)NC(=O)[C@H](CCC(=O)O)NC(=O)[C@@H](NC(=O)[C@H](CCCCN)NC(=O)[C@H](CCCCN)NC(=O)[C@H](CCC(N)=O)NC(=O)[C@@H](NC(=O)[C@H](CCC(=O)O)NC(=O)[C@H](CCC(=O)O)NC(=O)[C@@H](NC(=O)[C@H](CCCCN)NC(=O)[C@H](CCCCN)NC(=O)[C@H](CCC(N)=O)NC(=O)[C@@H](NC(=O)[C@H](CCC(=O)O)NC(=O)[C@H](CCC(=O)O)NC(=O)[C@@H](NC(C)=O)[C@@H](C)CC)[C@@H](C)CC)[C@@H](C)CC)[C@@H](C)CC)[C@@H](C)CC)[C@@H](C)CC)[C@@H](C)CC)[C@@H](C)CC)[C@@H](C)CC)[C@@H](C)CC)C(N)=O` [IIQ] (Ac-IEEIQKKIEEIQKKIEEIQKKIEEIQKKIEEIQKK[βAla]K(Palmitoyl)-NH2), the IC50 on IAV polymerase was above 100 µM. In [1], the “inhibition of neuraminidase of A/Puerto Rico/8/34 (H1N1), in words” value was “neither IIQ nor favipiravir was able to disturb cleavage of the substrate”. In addition, in data set [2], the “inhibition of neuraminidase of A/Hong Kong/8/68 (H3N2), in words” value is given as “neither IIQ nor favipiravir was able to disturb cleavage of the substrate”. Besides, in the data set on IAV, the “antiviral activity in the remaining three time intervals” value was “no antiviral activity” and the “reduction of viral load, interval 0–10 h” value is recorded as “approximately 60%”. Besides, the “inhibition of influenza virus-induced aggregation of chicken erythrocytes” value in data set [3] is reported as “no apparent inhibition”. Moreover, the “lysis of erythrocytes caused by HA2 under acidic condition” value at HA2 subunit is “decreased compared with the hemolytic effect of virus only”. In addition, the “N-PAGE of equimolar mixture with N66” value at N66 is on record as “new bands at the upper positions in the gel”. Further, the midpoint of the response in the data set on MERS-CoV pseudovirus, the EC50, lay at 0.13 µM. Further, the “CC50, cytotoxicity of compounds on MDCK cells” value with MDCK cells (dog, MDCK cells, 72 h) is above 100 µM. The “CC50 on the TZM-b1 cell” value in the data set on TZM-b1 cell was above 100 µM. In the data set “in vivo”, this compound had a level at 24 h above 100 ng/mL.

In the case of `NC(=O)c1nc(F)cnc1O` [favipiravir, reference compound], the “inhibition of neuraminidase of A/Puerto Rico/8/34 (H1N1), in words” value in data set [1] was “neither IIQ nor favipiravir was able to disturb cleavage of the substrate”. Besides, the “inhibition of neuraminidase of A/Hong Kong/8/68 (H3N2), in words” value in data set [2] is “neither IIQ nor favipiravir was able to disturb cleavage of the substrate”. In the data set with IAV, the “antiviral effect at the interval of 5–8 h” value is given as “continued to exert its full effect”.
